We go through five molecules from patent US11401255B2, “Small molecule activators of Parkin enzyme function” (Mayo Foundation for Medical Education and Research, priority 2016, dated 2022).

What is called EC50 is the concentration needed to bring the measured effect to its halfway point. High values mean lower potency in that assay, low ones higher potency in that assay. A word on the inhibition: it is the change of the read-out against control, counted positive when it falls.

Structures are written as SMILES. Counter-ions that a name gives are not always drawn. Like-named read-outs stand apart in the source and are kept apart here.

The target in series [1] is Parkin (Homo sapiens (Human), UniProt O60260). Briefly: Primary HCI assay of EGFP-Parkin translocation to mitochondria. In kind it is cell-based. The settings on record: primary assay screen, Parkin translocation to mitochondria. How it is done:
GFP-Parkin is localized throughout the cell in unstressed cells but translocates to mitochondria when the mitochondrial membrane potential is compromised and Parkin is activated. After automated image acquisition of fixed cells, regions of interest of each cell were defined with the analysis software. […] To quantify the relocalization of GFP-Parkin to mitochondria, the ratio of the GFP intensity in the cytoplasm and the nucleus was calculated. Under non-stressed condition, this ratio is about 1. FIG. 1B is a bar graph showing the results of the assay with a Z factor (Z′) of 0.5-0.8, which indicates its robustness and usefulness as a screening assay. Validation of the assay has been performed by using PINK1 siRNA.
FIGS. 2A-2C show a primary HCI assay with CCCP titration. FIG. 2A is a graphic description of the primary HCI assay of EGFP-Parkin translocation. HeLa cells stably expressing GFP-Parkin were seeded with 1350 cells per well in 384-well plates (25 μL per well). Cells were allowed to attach overnight before drug was added 2× concentrated in a volume of 25 μL in triplicates. After 2 h, 50 μL of a 2× low-dose CCCP (yielding a final concentration of 3.5 μM CCCP) was added to all wells that contained test compounds and for the negative control. For positive control wells, CCCP was added in a final concentration of 10 μM. After 2 h incubation with CCCP, cells were fixed and labeled with Hoechst for at least 1 h before cells were imaged. […] Values were being normalized to negative and positive control values and plotted as % activity. Z′ was calculated for quality control. Positive controls were indicated in green, negative control wells in red. Drugs that lead to more than 50% activity are considered positive (blue).
Functional testing of compounds was performed using an established primary HCI assay for Parkin translocation, which correlates well with enzymatic activation (Fiesel et al., J. Cell Science (2014) 127:3488-3504; Fiesel et al., Human Mutation (2015) 36:774-786). In brief, 1400 HeLa cells stably expressing EGFP-Parkin were seeded into optical 384-well plates (Greiner BioOne) in 25 μL media and allowed to adhere for 40 h. Compounds 1, 2, 3, 4, and 31 were added to the plate as 2× concentrated stocks. Control wells were treated with equal volume of DMSO in media. After 2 h, unless otherwise stated, CCCP was added as 2× concentrated stock with a final assay concentration of 10 μM for PC wells and 3.5 μM for test and NC wells. This low dose of CCCP was experimentally determined by a dose response curve of CCCP to result in no Parkin translocation (FIG. 13). After another 2 h, cells were fixed in 4% paraformaldehyde for 10 min and stained with Hoechst 33342 (1:5000, Invitrogen) before plates were imaged and analyzed.
Image acquisition was performed on a BD Pathway 855 with the Attovision V1.6 software (BD Biosciences). Wells were imaged with a 20× objective using a 2×2 montage with laser autofocus. EGFP exposure time was 0.0175 sec, Hoechst 0.0015 sec. Raw images were not processed and directly analyzed using a build-in ‘RING—2 output’ algorithm. Values were exported and normalized using JMP 11 software and transferred to GraphPad Prism 7 for quality control, graphing and curve fitting for DRCs with a variable slope using four parameters. […] Values were normalized to both PC and NC values from 24 wells each per plate and the Z′ score was calculated. Plates with Z′<0.5 were repeated.

In series [2] the target is FLAG-Parkin C431S (Homo sapiens (Human), UniProt O60260, C431S). Briefly: Ub-charging of FLAG-Parkin C431S (western blot). Type of series: cell-based. The settings on record: 1 μM, 2 h before 3.5 μM CCCP (FIG. 21). How it is done:
Another measure of Parkin activation is Ub charging of Parkin. Parkin receives Ub from an E2 enzyme to transfer it to a substrate protein. The Ub is bound by Parkin C431 in an unstable thioester bond. A serine substitution of this amino acid (C431S) leads to a stable oxyester bond. The bound Ub can then be visualized as a band shift in Western blot experiments. HeLa 3×FLAG-Parkin C431S cells were seeded in 12-well plates and allowed to attach overnight. Cells were treated with 5 μM (top panels) or 1 μM (bottom panels) of Compounds 1, 2, 3, 4, and 31 2 h before adding CCCP for another 2 h. 10 μM CCCP was added to positive control (PC) wells whereas all other samples received a low dose concentration of 3.5 μM. Cells were harvested in boiling hot SDS lysis buffer and protein concentration was determined by BCA. Samples were split and left either untreated or were treated with NaOH as indicated. Samples were run on an 8-16% Tris-Glycine gel, blotted onto membranes and probed with antibodies against Flag and pS65-Ub. GAPDH served as a loading control. Band shift indicates Parkin binding to Ubiquitin, which is cleavable with NaOH.
Cells were harvested in RIPA buffer or NP-40 lysis buffer containing protease and phosphatase inhibitors (Complete and PhosStop, Roche Applied Science) with the exception of Parkin Ub charging experiments where preheated (95° C.) SDS lysis buffer (50 mM Tris pH 7.6, 150 mM NaCl, 1% SDS) was used. Concentration of cell lysates was determined with bicinchoninic acid (Pierce Biotechnology). For Parkin Ub charging experiments, aliquots of lysates were treated with […] for 1 h at 37° C. pH was neutralized with equinormal HCl.
Protein was subjected to SDS-PAGE using 4-20% or 8-16% Tris-Glycine gels (Invitrogen) and transferred onto polyvinylidene fluoride (PVDF) (Millipore). Membranes were incubated with primary antibodies overnight at 4° C. followed by HRP-conjugated secondary antibodies (1:10,000; Jackson ImmunoResearch Laboratories). Primary antibodies used: beta III tubulin (rabbit, 1:1000, CST, #5568, CST), FLAG (mouse, 1:250,000, Sigma, F3165), GAPDH (mouse, 1:100,000-500,000, Meridian Life science, H86504M), GST (1:10,000, Sigma, G7781), MFN1 (mouse, 1:5,000, Abcam, ab57602), MFN2 (mouse, 1:5,000, Abcam, ab56889), Parkin (mouse, 1:2,000, Cell Signaling, #4211), pSer65-Ub (rabbit, 1:15,000, in-house (Fiesel et al., EMBO Reports (2015) 16:1114-30; Fiesel et al., (2015) Autophagy 11:2125-2126)), TOM70 (rabbit, 1:5,000, Proteintech, 14528-1-AP), UBE2L3 (rabbit, 1:10,000, ProteinTech, 14415-1-AP), VDAC1 (mouse, 1:5,000, Abcam, ab14734), vinculin (mouse, 1:100,000, Sigma, V9131).
HeLa 3×FLAG-Parkin C431S cells were seeded in 6-well plates and allowed to attach overnight. Cells were treated with […] of compounds 5, 21-28, 32, 33, or 43-46 2 h before adding CCCP for another 2 h. 10 VM CCCP was added to positive control (PC) wells, 3.5 μM CCCP to compound (+) and negative control (NC) wells. […] Cells were harvested in boiling hot SDS lysis buffer and protein concentration was determined by BCA. Samples were split and left either untreated or were treated with NaOH as indicated. Samples were run on an 8-16% Tris-Glycine gel, blotted onto membranes and probed with antibodies against Flag. Vinculin served as a loading control. Band shift indicates Parkin binding to Ubiquitin, which is cleavable with NaOH (FIG. 21).

Series [3] is described as follows: Caco-2 A-B permeability assay. Type of series: in vitro ADME. The settings on record: human, Caco-2, pH 7.4, A-B. How it is done: (§1) Caco-2 cells were cultivated in 75 cm^2 flasks to 80-90% of confluence according to the ATCC and Millipore recommendations (Millipore protocol note PC1060EN00P) in a humidified atmosphere at 37° C. and 5% CO2. Cells were detached with Trypsin/EDTA solution and re-suspended in the cell culture medium to a final concentration of 2×10^5 cells/mL. 500 μL of the cell suspension was added to each well of an HTS 24-multiwell insert system and 35 mL of prewarmed complete medium was added to the feeder tray. Caco-2 cells were incubated in the multiwell insert system for 10 days before the transport experiments. The medium in the filter plate and feeder tray was changed every other day. After 10 days of cell growth, the integrity of the monolayer was verified by measuring the transepithelial electrical resistance (TEER) for every well using the Millicell-ERS system ohm meter. […] The 24-well insert plate was removed from its feeder plate and placed in a new sterile 24-well transport analysis plate. The medium was aspirated and inserts washed with PBS.
(§2) To determine the rate of drug transport in apical (A) to basolateral (B) direction, 300 μL of the test compound solution in buffer (HBSS, 5.6 mM glucose, 10 mM HEPES, pH=7.4) was added into the filter wells and 1000 μL of the same buffer was added to wells in the transport analysis plate. The plates were incubated for 90 min. at 37° C. with shaking at 50 rpm. 75 μL aliquots were taken from the apical and basolateral compartment for LC-MS/MS analysis. All samples for LC-MS/MS analysis were extracted by acetonitrile (×2 volume) followed by protein sedimentation by centrifuging at 10000 rpm for 10 minutes. Supernatants were analyzed using the HPLC system coupled with a tandem mass spectrometer.
(§3) The apparent permeability (Papp) was calculated for the Caco-2 permeability assay using the following equation: Papp=(VA/((Area)×(Time))×([drug]acc/[drug]initial,d), where: […]
In general terms: Caco-2 monolayers are a common model of the intestinal barrier.

Series [4] relates to Caco-2 cells. Briefly: Caco-2 A-B permeability assay. Type of series: in vitro ADME. The following applies: A-B, 90 min, pH=7.4; hydrochloride. The protocol:
as §1, §2, §3

The target of series [5] is CYP 2D6 (Homo sapiens (Human), UniProt P10635). As to the kind of experiment: P450-Glo CYP450 inhibition, CYP 2D6. The protocol:
CYP450 inhibition profiling provides valuable information regarding any possible drug-drug interactions for a test compound.
All experiments were performed using P450-Glo™ Assay Systems (Promega) in accordance with the manufacturer's protocols. The P450-Glo™ Assays provide a luminescent readout-based method for measuring cytochrome P450 activity. A conventional cytochrome P450 reaction was performed by incubating the cytochrome P450 and a luminogenic cytochrome P450 substrate. The substrates in the P450-Glo™ assays are derivatives of beetle luciferin. The derivatives themselves are not substrates for luciferase but are converted by cytochrome P450s to luciferin, which in turn reacts with luciferase to produce light. The amount of light produced was directly proportional to cytochrome P450 activity. All test points were performed in quadruplicates. Control membranes (without CYPs) represented the Negative control (baseline).
The following reference compounds were used to assess CYP inhibition: […]

Chain of CYP 2D6 (P10635 whole entry): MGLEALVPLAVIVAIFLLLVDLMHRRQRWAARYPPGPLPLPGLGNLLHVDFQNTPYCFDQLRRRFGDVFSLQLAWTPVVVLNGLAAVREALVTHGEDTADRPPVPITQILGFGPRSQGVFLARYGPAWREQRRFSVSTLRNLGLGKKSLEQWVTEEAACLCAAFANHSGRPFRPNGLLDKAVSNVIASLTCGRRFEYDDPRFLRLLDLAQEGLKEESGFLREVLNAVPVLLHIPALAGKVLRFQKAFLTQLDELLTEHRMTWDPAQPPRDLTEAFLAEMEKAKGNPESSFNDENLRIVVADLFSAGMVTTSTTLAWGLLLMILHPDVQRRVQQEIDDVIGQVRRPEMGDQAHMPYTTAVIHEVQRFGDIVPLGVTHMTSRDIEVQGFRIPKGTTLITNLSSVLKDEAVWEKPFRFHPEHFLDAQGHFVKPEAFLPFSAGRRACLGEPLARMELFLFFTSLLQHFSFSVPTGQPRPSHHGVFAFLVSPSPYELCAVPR

In the case of `c1ccc(CN2CCCN(c3ncnc4c3CCCC4)CC2)cc1` [Compound 33], the EC50 in series [1] came out at 111 nM. In addition, the “Ub-charging of FLAG-Parkin C431S (WB)” value in series [2] is given as “enhanced Ub-charging”.
As for `CC(C)NCC(O)COc1cccc2ccccc12` (stereo not shown) [Propranolol, propranolol hydrochloride, reference compound], the Papp at 90 min in series [3] (read-out: Permeability (individual replicates 1, 2)) is 23 ×10⁻⁶ cm/s; in series [3] (read-out: Permeability Mean) it was 21.8 ×10⁻⁶ cm/s. In addition, the “Permeability (individual replicates 1, 2)” value in series [4] is recorded as 20.6 10^−6 cm/s.
As for `c1ccc(CN2CCCN(c3ncnc4c3CCCCC4)CC2)cc1` [Compound 32], in series [1], the response was half-maximal at 36 nM (EC50). Besides, the “Ub-charging of FLAG-Parkin C431S (WB)” value in series [2] is listed as “enhanced Ub-charging”.
The molecule `Cc1nc(NC(=O)Cn2cnc3c2CCCC3)ccc1-c1ccccc1` [Compound 5] had an EC50 in series [1] of 63 nM. In series [2], the “Ub-charging of FLAG-Parkin C431S (WB)” value is “enhanced Ub-charging”.
Molecule `C=C[C@H]1C[N@@]2CC[C@H]1C[C@@H]2[C@@H](O)c1ccnc2ccc(OC)cc12` [quinidine, reference compound] came in with an inhibition at 1 µM in series [5] of 88.4%.
